Reference: ChEMBL document CHEMBL1201862, “PubChem BioAssay data set” (2004)
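Each compound was tested at five concentrations against cells in 96-well plates for 48 hours. GI50: concentration for 50% inhibition of growth.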 The source made the active and inactive calls. No stated cut-off is given here; in the data, active = GI50 up to about 1.1 µM and inactive = higher.

Assays:
Assay in all cases: inhibition of tumour cell growth, NCI panel, 48 h
SF-539 = test system: SF-539
SW-620 = test system: SW-620
RXF 393 = test system: RXF 393
OVCAR-3 = test system: OVCAR-3
KM12 = test system: KM12
SN12C = test system: SN12C
HL-60 = test system: HL-60
RPMI-8226 = test system: RPMI-8226
SNB-75 = test system: SNB-75
HT-29 = test system: HT-29
MDA-MB-435 = test system: MDA-MB-435
SR = test system: SR
PC-3 = test system: PC-3
T47D = test system: T47D
CAKI-1 = test system: CAKI-1
OVCAR-8 = test system: OVCAR-8
HOP-62 = test system: HOP-62
HCT-15 = test system: HCT-15
UACC-62 = test system: UACC-62
DU-145 = test system: DU-145
MCF7 = test system: MCF7
A549 = test system: A549
HCT-116 = test system: HCT-116
Malme-3M = test system: Malme-3M
K562 = test system: K562
HCC 2998 = test system: HCC 2998
MDA-MB-231 = test system: MDA-MB-231
OVCAR-5 = test system: OVCAR-5
NCI/ADR-RES = test system: NCI/ADR-RES
NCI-H226 = test system: NCI-H226
BT-549 = test system: BT-549
Hs-578T = test system: Hs-578T
SF-295 = test system: SF-295
LOX IMVI = test system: LOX IMVI
EKVX = test system: EKVX
UACC-257 = test system: UACC-257
COLO 205 = test system: COLO 205
CCRF-CEM = test system: CCRF-CEM
SK-MEL-28 = test system: SK-MEL-28
IGROV-1 = test system: IGROV-1
MOLT-4 = test system: MOLT-4
U-251 = test system: U-251
TK-10 = test system: TK-10
NCI-H460 = test system: NCI-H460
NCI-H522 = test system: NCI-H522
NCI-H23 = test system: NCI-H23
SNB-19 = test system: SNB-19
SK-MEL-5 = test system: SK-MEL-5
MDA-N = test system: MDA-N
ACHN = test system: ACHN
SF-268 = test system: SF-268
UO-31 = test system: UO-31
SK-MEL-2 = test system: SK-MEL-2
A498 = test system: A498
OVCAR-4 = test system: OVCAR-4
M14 = test system: M14
SK-OV-3 = test system: SK-OV-3
786-0 = test system: 786-0
HOP-92 = test system: HOP-92

Measured: GI50

Cc1cccc(C(O)c2ccccn2)c1O (stereo unspecified)
83.2 µM: HCT-15
inactive: SF-539 > 100 µM | SW-620 > 100 µM | RXF 393 > 100 µM | OVCAR-3 > 100 µM | KM12 > 100 µM | SN12C > 100 µM | HL-60 > 100 µM | RPMI-8226 > 100 µM | SNB-75 > 100 µM | HT-29 > 100 µM | MDA-MB-435 > 100 µM | SR > 100 µM | PC-3 > 100 µM | T47D 15.7 µM | CAKI-1 > 100 µM | OVCAR-8 > 100 µM | HOP-62 > 100 µM | UACC-62 74.6 µM | DU-145 > 100 µM | MCF7 > 100 µM | A549 > 100 µM | HCT-116 > 100 µM | Malme-3M > 100 µM | K562 > 100 µM | HCC 2998 > 100 µM | MDA-MB-231 > 100 µM | OVCAR-5 > 100 µM | NCI/ADR-RES > 100 µM | NCI-H226 > 100 µM | BT-549 > 100 µM | Hs-578T > 100 µM | SF-295 > 100 µM | LOX IMVI > 100 µM | EKVX > 100 µM | UACC-257 > 100 µM | COLO 205 > 100 µM | CCRF-CEM > 100 µM | SK-MEL-28 > 100 µM | IGROV-1 > 100 µM | MOLT-4 > 100 µM | U-251 > 100 µM | TK-10 > 100 µM | NCI-H460 > 100 µM | NCI-H522 > 100 µM | NCI-H23 > 100 µM | SNB-19 > 100 µM | SK-MEL-5 > 100 µM | MDA-N > 100 µM | ACHN > 100 µM | SF-268 > 100 µM | UO-31 > 100 µM

O=C(NNC(=O)c1ccco1)c1ccco1
> 100 µM: HCT-15
inactive: SF-539 > 100 µM | SW-620 > 100 µM | RXF 393 > 100 µM | OVCAR-3 > 100 µM | KM12 > 100 µM | SN12C > 100 µM | HL-60 > 100 µM | RPMI-8226 > 100 µM | SNB-75 55 µM | HT-29 > 100 µM | MDA-MB-435 > 100 µM | SR > 100 µM | PC-3 > 100 µM | T47D > 100 µM | CAKI-1 > 100 µM | OVCAR-8 > 100 µM | HOP-62 > 100 µM | UACC-62 > 100 µM | DU-145 > 100 µM | SK-MEL-2 > 100 µM | MCF7 > 100 µM | A549 > 100 µM | HCT-116 > 100 µM | Malme-3M 39.6 µM | K562 > 100 µM | A498 > 100 µM | MDA-MB-231 > 100 µM | OVCAR-5 > 100 µM | OVCAR-4 > 100 µM | NCI/ADR-RES > 100 µM | NCI-H226 > 100 µM | BT-549 > 100 µM | Hs-578T > 100 µM | SF-295 > 100 µM | LOX IMVI > 100 µM | EKVX > 100 µM | UACC-257 > 100 µM | M14 > 100 µM | COLO 205 > 100 µM | CCRF-CEM > 100 µM | SK-MEL-28 > 100 µM | IGROV-1 > 100 µM | MOLT-4 > 100 µM | U-251 > 100 µM | TK-10 > 100 µM | NCI-H460 > 100 µM | NCI-H522 15 µM | SK-OV-3 > 100 µM | SNB-19 > 100 µM | SK-MEL-5 > 100 µM | MDA-N > 100 µM | SF-268 > 100 µM | 786-0 > 100 µM | UO-31 > 100 µM

CCOC1NC(=O)c2ccccc21 (stereo unspecified)
inactive: SF-539 > 100 µM | SW-620 > 100 µM | RXF 393 > 100 µM | OVCAR-3 > 100 µM | KM12 > 100 µM | SN12C > 100 µM | HL-60 > 100 µM | RPMI-8226 > 100 µM | SNB-75 > 100 µM | HT-29 > 100 µM | MDA-MB-435 > 100 µM | SR > 100 µM | PC-3 > 100 µM | T47D > 100 µM | OVCAR-8 > 100 µM | HOP-62 > 100 µM | UACC-62 > 100 µM | DU-145 > 100 µM | MCF7 > 100 µM | A549 > 100 µM | HCT-116 > 100 µM | Malme-3M > 100 µM | K562 > 100 µM | HCC 2998 > 100 µM | MDA-MB-231 > 100 µM | OVCAR-5 > 100 µM | OVCAR-4 > 100 µM | HOP-92 > 100 µM | NCI/ADR-RES > 100 µM | NCI-H226 > 100 µM | BT-549 > 100 µM | Hs-578T > 100 µM | SF-295 > 100 µM | LOX IMVI > 100 µM | EKVX > 100 µM | UACC-257 > 100 µM | M14 > 100 µM | COLO 205 > 100 µM | CCRF-CEM > 100 µM | SK-MEL-28 > 100 µM | IGROV-1 > 100 µM | MOLT-4 > 100 µM | U-251 > 100 µM | TK-10 > 100 µM | NCI-H460 > 100 µM | NCI-H522 > 100 µM | SK-OV-3 > 100 µM | NCI-H23 > 100 µM | SNB-19 > 100 µM | SK-MEL-5 > 100 µM | MDA-N > 100 µM | ACHN > 100 µM | SF-268 > 100 µM | 786-0 > 100 µM | UO-31 > 100 µM
> 100 µM: HCT-15

OC1(c2ccc(Cl)cc2)c2ccccc2C2=NCc3ccccc3CN21 (stereo unspecified)
7.14 µM: HCT-15
inactive: SF-539 7.13 µM | SW-620 2.69 µM | OVCAR-3 1.7 µM | KM12 4.7 µM | SN12C 17.5 µM | HL-60 4.94 µM | RPMI-8226 > 21.3 µM | SNB-75 6.35 µM | HT-29 14.7 µM | MDA-MB-435 7.45 µM | SR 8.53 µM | PC-3 4.74 µM | T47D 23.3 µM | CAKI-1 12.3 µM | OVCAR-8 9.55 µM | HOP-62 6.47 µM | UACC-62 13.6 µM | DU-145 17.9 µM | SK-MEL-2 1.2 µM | MCF7 4.8 µM | A549 4.58 µM | HCT-116 6.62 µM | Malme-3M 13.9 µM | K562 2.68 µM | HCC 2998 2.18 µM | A498 13.6 µM | MDA-MB-231 16.6 µM | OVCAR-5 13.1 µM | OVCAR-4 12.6 µM | HOP-92 13.1 µM | NCI/ADR-RES 13.1 µM | NCI-H226 5.47 µM | BT-549 18.6 µM | Hs-578T 14.9 µM | SF-295 15.3 µM | LOX IMVI 9.2 µM | EKVX 5.48 µM | UACC-257 14.3 µM | M14 2.96 µM | COLO 205 4.9 µM | CCRF-CEM 7.6 µM | SK-MEL-28 2.75 µM | IGROV-1 3.75 µM | MOLT-4 3.37 µM | U-251 7.24 µM | TK-10 14.6 µM | NCI-H460 11.2 µM | NCI-H522 14.1 µM | SK-OV-3 1.22 µM | NCI-H23 6.97 µM | SNB-19 3.51 µM | SK-MEL-5 13.2 µM | MDA-N 12.9 µM | ACHN 4.45 µM | SF-268 12.4 µM | 786-0 5.45 µM | UO-31 7.98 µM
